From ChEMBL document CHEMBL3885861, “Open TG-GATES”

Organism: Rattus norvegicus
Test: Open TG-GATES - Regimen: Single
Assay type: toxicity, organism-based, Sprague-Dawley
Parameters: regimen Single, gender Male, age 6 weeks
Details: in vivo, po, 300 mg/kg, route gavage, dose level Low; for APTT / Bas / Eos / Fbg / Hb / Ht / Lym / MCH / MCHC / MCV / Mono / Neu / PT / Plat / RBC / Ret / WBC: tissue Blood; for KIDNEY_L / KIDNEY_R / KIDNEY_TOTAL: tissue Kidney; for LIVER: tissue Liver; for A/G / ALP / ALT / AST / BUN / CRE / Ca / Cl / DBIL / GLC / IP / K / LDH / Na / PL / RALB / TBIL / TC / TG / TP / gamma-GTP: tissue Plasma

Work on `COc1ccc(O)c(C(C)(C)C)c1.COc1ccc(O)cc1C(C)(C)C` [BUTYLATED HYDROXYANISOLE] yielded a TERMINAL_BW (3 h) of 204.6 g, an APTT (3 h) of 16.4 s and a Bas (3 h) of 0.2%. For the same compound, the Eos (3 h) was 0.6%, the Fbg (3 h) was 281.2 mg/dL and the Hb (3 h) was 13.8 g/dL. It also gave a Ht (3 h) of 39.9%, a Lym (3 h) of 75% and an MCH (3 h) of 21.7 pg. It also gave an MCHC (3 h) of 34.5%, an MCV (3 h) of 63.1 fL and a Mono (3 h) of 2.5%. For the same compound, the Neu (3 h) was 20.7%, the PT (3 h) was 12 s and the Plat (3 h) was 133.9 x10_4/uL. For the same compound, the RBC (3 h) was 633.4 x10_4/ul, the Ret (3 h) was 8.1% and the WBC (3 h) was 97.5 x10_2/uL. For the same compound, the KIDNEY_L (3 h) was 0.9 g, the KIDNEY_R (3 h) was 0.9 g and the KIDNEY_TOTAL (3 h) was 1.8 g. The LIVER (3 h) was 8.5 g, the A/G (3 h) was 0.8 and the ALP (3 h) was 1752.8 IU/L. It also gave an ALT (3 h) of 41.8 IU/L, an AST (3 h) of 75.4 IU/L and a BUN (3 h) of 10.2 mg/dL. The CRE (3 h) was 0.2 mg/dL, the Ca (3 h) was 11.3 mg/dL and the Cl (3 h) was 107.8 meq/L. For the same compound, the DBIL (3 h) was 0.052 mg/dL, the GLC (3 h) was 173.2 mg/dL and the IP (3 h) was 9.1 mg/dL. It also gave a K (3 h) of 3.9 meq/L, an LDH (3 h) of 75.6 IU/L and a Na (3 h) of 141.8 meq/L. For the same compound, the PL (3 h) was 154.4 mg/dL, the RALB (3 h) was 2.7 g/dL and the TBIL (3 h) was 0.082 mg/dL. The TC (3 h) was 80.8 mg/dL, the TG (3 h) was 149.4 mg/dL and the TP (3 h) was 5.8 g/dL. The gamma-GTP (3 h) was 1 IU/L, the TERMINAL_BW (6 h) was 202.1 g and the APTT (6 h) was 16.2 s. The Bas (6 h) was 0.2%, the Eos (6 h) was 0.7% and the Fbg (6 h) was 257.2 mg/dL. It also gave a Hb (6 h) of 13.3 g/dL, a Ht (6 h) of 39.1% and a Lym (6 h) of 72%. For the same compound, the MCH (6 h) was 21.2 pg, the MCHC (6 h) was 33.9% and the MCV (6 h) was 62.4 fL. The Mono (6 h) was 2.5%, the Neu (6 h) was 23.7% and the PT (6 h) was 12.3 s. It also gave a Plat (6 h) of 131.2 x10_4/uL, an RBC (6 h) of 627.4 x10_4/ul and a Ret (6 h) of 7.7%. The WBC (6 h) was 91.5 x10_2/uL, the KIDNEY_L (6 h) was 0.9 g and the KIDNEY_R (6 h) was 0.9 g. For the same compound, the KIDNEY_TOTAL (6 h) was 1.8 g, the LIVER (6 h) was 7.9 g and the A/G (6 h) was 0.9. It also gave an ALP (6 h) of 1829.2 IU/L, an ALT (6 h) of 38 IU/L and an AST (6 h) of 72.8 IU/L. The BUN (6 h) was 9.4 mg/dL, the CRE (6 h) was 0.2 mg/dL and the Ca (6 h) was 11.1 mg/dL. It also gave a Cl (6 h) of 107.8 meq/L, a DBIL (6 h) of 0.03 mg/dL and a GLC (6 h) of 172.4 mg/dL. For the same compound, the IP (6 h) was 10.3 mg/dL, the K (6 h) was 4.2 meq/L and the LDH (6 h) was 60.2 IU/L. The Na (6 h) was 143.2 meq/L, the PL (6 h) was 134.4 mg/dL and the RALB (6 h) was 2.6 g/dL. It also gave a TBIL (6 h) of 0.074 mg/dL, a TC (6 h) of 75 mg/dL and a TG (6 h) of 65.8 mg/dL. It also gave a TP (6 h) of 5.7 g/dL, a gamma-GTP (6 h) of 1.4 IU/L and a TERMINAL_BW (9 h) of 199.4 g. The APTT (9 h) was 16.9 s, the Bas (9 h) was 0.2% and the Eos (9 h) was 0.7%. It also gave a Fbg (9 h) of 273.6 mg/dL, a Hb (9 h) of 13.4 g/dL and a Ht (9 h) of 39.1%. It also gave a Lym (9 h) of 76.3%, an MCH (9 h) of 20.7 pg and an MCHC (9 h) of 34.3%. For the same compound, the MCV (9 h) was 60.5 fL, the Mono (9 h) was 1.9% and the Neu (9 h) was 20.1%. It also gave a PT (9 h) of 13.1 s, a Plat (9 h) of 145.3 x10_4/uL and an RBC (9 h) of 647.4 x10_4/ul. For the same compound, the Ret (9 h) was 7.4%, the WBC (9 h) was 69.4 x10_2/uL and the KIDNEY_L (9 h) was 0.9 g. The KIDNEY_R (9 h) was 0.9 g, the KIDNEY_TOTAL (9 h) was 1.7 g and the LIVER (9 h) was 7.5 g. The A/G (9 h) was 0.8, the ALP (9 h) was 1688.6 IU/L and the ALT (9 h) was 30.6 IU/L. For the same compound, the AST (9 h) was 66.4 IU/L, the BUN (9 h) was 8.2 mg/dL and the CRE (9 h) was 0.2 mg/dL. The Ca (9 h) was 10.8 mg/dL, the Cl (9 h) was 108 meq/L and the DBIL (9 h) was 0.026 mg/dL. It also gave a GLC (9 h) of 163.8 mg/dL, an IP (9 h) of 10.1 mg/dL and a K (9 h) of 4 meq/L. For the same compound, the LDH (9 h) was 48.4 IU/L, the Na (9 h) was 142.8 meq/L and the PL (9 h) was 134.6 mg/dL. It also gave an RALB (9 h) of 2.6 g/dL, a TBIL (9 h) of 0.088 mg/dL and a TC (9 h) of 77.4 mg/dL. It also gave a TG (9 h) of 66 mg/dL, a TP (9 h) of 5.6 g/dL and a gamma-GTP (9 h) of 1.4 IU/L. The TERMINAL_BW (24 h) was 215.1 g, the APTT (24 h) was 15.4 s and the Bas (24 h) was 0.3%. It also gave an Eos (24 h) of 0.7%, a Fbg (24 h) of 256.6 mg/dL and a Hb (24 h) of 13 g/dL. The Ht (24 h) was 38%, the Lym (24 h) was 82.1% and the MCH (24 h) was 21.3 pg. The MCHC (24 h) was 34.1%, the MCV (24 h) was 62.3 fL and the Mono (24 h) was 2.3%. For the same compound, the Neu (24 h) was 13.9%, the PT (24 h) was 12 s and the Plat (24 h) was 142.8 x10_4/uL. For the same compound, the RBC (24 h) was 610.6 x10_4/ul, the Ret (24 h) was 6.9% and the WBC (24 h) was 97.1 x10_2/uL. It also gave a KIDNEY_L (24 h) of 0.9 g, a KIDNEY_R (24 h) of 0.9 g and a KIDNEY_TOTAL (24 h) of 1.8 g. The LIVER (24 h) was 9.6 g, the A/G (24 h) was 0.9 and the ALP (24 h) was 1667 IU/L. It also gave an ALT (24 h) of 47.2 IU/L, an AST (24 h) of 79 IU/L and a BUN (24 h) of 15 mg/dL. It also gave a CRE (24 h) of 0.2 mg/dL, a Ca (24 h) of 11.4 mg/dL and a Cl (24 h) of 106.4 meq/L. The DBIL (24 h) was 0.028 mg/dL, the GLC (24 h) was 166.4 mg/dL and the IP (24 h) was 7.8 mg/dL. For the same compound, the K (24 h) was 4.2 meq/L, the LDH (24 h) was 63 IU/L and the Na (24 h) was 143.2 meq/L. The PL (24 h) was 135.2 mg/dL, the RALB (24 h) was 2.7 g/dL and the TBIL (24 h) was 0.078 mg/dL. It also gave a TC (24 h) of 78.2 mg/dL, a TG (24 h) of 110.2 mg/dL and a TP (24 h) of 5.7 g/dL. The gamma-GTP (24 h) was 1 IU/L.
